From patent US20140066324A1, “GENE EXPRESSION SIGNATURE IN SKIN PREDICTS RESPONSE TO MYCOPHENOLATE MOFETIL” (NORTHWESTERN UNIVERSITY, priority 2011, published 2014)

Tests used:
[1] = tested on: skin fibrosis; assay: Morphology of skin biopsy specimens, H&E staining of paraffin embedded sections; type: in vivo, human
Method: Patients seen at the Northwestern Scleroderma Program who met American College of Rheumatology criteria for SSc with a mRSS≧16 and would be receiving mycophenolate mofetil for the indication of progressive skin tightening were assessed. All patients provided written informed consent in accordance with the Institutional Review Board Guidelines of Northwestern University. Patients underwent a standardized physical exam, including mRSS performed by one clinician at study entry (prior to treatment) and at 6 months and 12 months post MMF initiation. […] from clinically involved skin (forearm) and clinically uninvolved skin (back) from the non-dominant side of the body. Two biopsies (one from forearm and back) were placed in RNAlater® (Applied Biosystems, Ambion®, Carlsbad, Calif., U.S.A.) and used for DNA microarray analysis and the other biopsy was placed in 10% neutral buffered formalin and used for histological analyses.
To confirm the physical exam finding of softened skin in MMF-responders, the morphology of skin biopsy specimens was examined using routine H&E staining of paraffin embedded sections.

[2] = SSc patients; cited from earlier work

Compound	extent of skin fibrosis, pre- vs post-treatment biopsies ([1]; MMF responders)	skin fibrosis and dermal appendages ([1]; MMF-nonresponder)	clinical response [2]
COc1c(C)c2c(c(O)c1C/C=C(\C)CCC(=O)OCCN1CCOCC1)C(=O)OC2 [MMF, mycophenolate mofetil]	clear differences in the extent of fibrosis between pre- and post-treatment biopsies in responders	greater degree in skin fibrosis and a further loss of the normal dermal appendages	
rituximab			no clinical benefit
